Where two headings read alike, the source gives them in different places.
Columns and labels:
LecA [1] = biological target: T1, LecA (Pseudomonas aeruginosa, UniProt Q05097); test: Isothermal titration calorimetry of Ca2+ to apo LecA; assay type: binding; conditions: unlabeled apo LecA, TBS pH 7.4, 25°C; read-out: Kd (ITC)
T1 construct: made in house; host or cells: Escherichia coli BL21 (DE3) (inferred from the yield comparison; no protocol of its own is printed for the unlabelled protein)
Protocol: ITC was performed on a Microcal ITC200 (General Electric) at 25°C. Calcium ions were removed by extensive dialysis against 1 mM EDTA pH 7.4 (×4) followed by 150 mM NaCl (×4) and distilled water. The protein solution was lyophilized and the solid protein stored at −20°C. A solution of calcium chloride in TBS (20 mM Tris, 137 mM NaCl, 2.6 mM KCl at pH 7.4) was titrated into a calcium-free LecA solution in the same buffer. The data were analyzed according to the one-site-binding model using Microcal Origin software. Four independent titrations were performed using CaCl2 and LecA between 2 and 3 mM and 170 and 200 μM, respectively.

5FW LecA [2] = biological target: T2, 5FW LecA (Pseudomonas aeruginosa, UniProt Q05097); test: PrOF NMR titration of ligands to 5FW LecA (W42 peak intensity); assay type: binding
T2 construct: made in house; host or cells: Escherichia coli BL21 (DE3), plasmid pET25pa1l, grown with 5-fluoroindole
Protocol: All experiments were conducted on Bruker Ascend™700 (AvanceIII HD) spectrometer equipped with a 5 mm TCI700 CryoProbe™ in 3 mm tubes (Norell S-3-800-7) with following parameters: time domain of 1972, relaxation delay 1 s, acquisition time of 0.15 s, spectral width of 10 p.p.m. and 1024 scans resulting in measurement time of 20 minutes.
The decreasing intensity of the unbound W42 in 5FW LecA was followed to determine Kd values of ligands. Here, we used these values to normalize the changes in W42 peak intensities (Inormalized) following the equation (1) resulting in values plotted on Y-axis.(1) where I0 was unbound W42 in the reference spectrum of protein only, Imeasured was unbound W42 peak of protein with a ligand. The Kd values were calculated according to the one-site-binding model in GraphPad Prism 8 (GraphPad Software Inc., San Diego, CA) from three independent titrations.

5FW LecA [3] = biological target: T2, 5FW LecA; test: Competitive binding fluorescence polarization assay with 5FW LecA
Protocol: (§1) The competitive binding assay was performed as reported previously ([Joachim et al. 2016]). In total, 10 μL of LecA (40 μM) and meta-linked fluorescein-conjugate of phenyl-galactopyranoside (20 nM) in TBS pH 7.4 supplemented with 1 mM CaCl2 (TBS/Ca^2+) and 10 μL of compound-dilution series (8 mM to 62 μM, 8% DMSO) in TBS/Ca^2+ buffer were mixed in a 384-well plate (Greiner Bio-One, Germany) in three technical replicates. The sealed plate was centrifuged at 300 g for 1 min and incubated at room temperature with shaking. […] Polarization was calculated and the data were analyzed according to the four-parameter variable slope model (MARS Data Analysis Software, BMG Labtech GmbH, Germany), the top and bottom plateaus were determined from the control Me-α-D-Gal and data were reanalyzed with these values fixed.

LecA [4] = biological target: T1, LecA; test: Competitive binding fluorescence polarization assay with LecA
Protocol: as §1

LecA [5] = biological target: T1, LecA; conditions: ref Cioci et al. 2003; cited from earlier work
LecA [6] = biological target: T1, LecA; conditions: cited from earlier work; for affinity improvement compared to galactose: reported Kd values, ref Kadam, et al. 2011, Rodrigue, et al. 2013

T1 sequence (Q05097 whole entry): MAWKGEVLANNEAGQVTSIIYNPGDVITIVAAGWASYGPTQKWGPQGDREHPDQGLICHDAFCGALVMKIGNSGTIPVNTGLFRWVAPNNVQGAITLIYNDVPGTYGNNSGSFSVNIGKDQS
T2 sequence (Q05097 2-122): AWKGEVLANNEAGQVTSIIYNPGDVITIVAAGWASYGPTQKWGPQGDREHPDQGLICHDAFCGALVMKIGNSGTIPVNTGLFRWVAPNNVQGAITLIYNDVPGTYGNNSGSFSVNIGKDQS

## [Ca+2] [Ca^2+, calcium (II) ion]
LecA [1]
  Kd: 60 ± 20 µM
5FW LecA [2]; 100 μM apo 5FW LecA, MES pH 6, 310 K, one-site-binding model, three independent titrations, listed as Ca2+, read-out: Kd (PrOF NMR, Ca2+ titration)
  Kd: 47 ± 8 µM
5FW LecA [2]; 100 μM apo 5FW LecA, MES pH 6, 310 K, one-site-binding model, three independent titrations, read-out: Kd (PrOF NMR, Ca2+ titration)
  Kd: 478 µM

## O=C[C@H](O)[C@@H](O)[C@@H](O)[C@H](O)CO [D-Gal, D-galactose]
5FW LecA [3]
  IC50: 317 µM
LecA [4]
  IC50: 330 ± 40 µM
LecA [5]
  Kd: 29 µM
5FW LecA [2]
  Kd: 360 µM

## CC(=O)N[C@H]1C(O)O[C@H](CO)[C@H](O)[C@@H]1O (stereo partly drawn) [D-GalNAc, N-acetyl D-galactosamine]
5FW LecA [3]
  IC50: 1990 µM
5FW LecA [3]; 5FW LecA
  IC50 (FP-based assay) higher compared with Kd from PrOF NMR: 3 fold
LecA [4]
  IC50: 1230 ± 200 µM
5FW LecA [2]
  Kd: 780 ± 97 µM

## CC(C)C[C@H](NC(=O)[C@@H]1CCCN1C(=O)[C@H](CCCCN)NC(=O)c1ccc(O[C@@H]2O[C@H](CO)[C@H](O)[C@H](O)[C@H]2O)cc1)C(N)=O [GalAG0]
LecA [6]; ref Kadam et al. 2011, Kadam et al. 2013, Rodrigue et al. 2013
  Kd: 4.2 µM

## OC[C@H]1O[C@@H](Oc2ccccc2)[C@H](O)[C@@H](O)[C@H]1O [Ph-β-D-Gal, phenyl-β-D-galactopyranoside]
5FW LecA [2]; 100 μM holo 5FW LecA, TBS pH 7.8, 310 K, one-site-binding model, three independent titrations, read-out: Kd (PrOF NMR)
  Kd: 166 ± 42 µM

## OC[C@H]1O[C@@H](Sc2ccc3ccccc3c2)[C@H](O)[C@@H](O)[C@H]1O [naphthyl β-thio-D-galactoside]
LecA [6]; ref Rodrigue et al. 2013
  Kd: 6.3 µM
LecA [6]
  affinity improvement compared to galactose: 6 to 7 fold

## O=[N+]([O-])c1ccc(O[C@@H]2O[C@H](CO)[C@H](O)[C@H](O)[C@H]2O)cc1 [pNPGal, p-nitrophenyl β-D-galactoside]
LecA [6]
  affinity improvement compared to galactose: 6 to 7 fold
5FW LecA [2]
  Kd: 54 ± 6 µM
5FW LecA [2]; Kd in PrOF NMR, pNPGal vs D-Gal
  improved binding affinity compared to D-Gal: 6 fold

Source: paper PMC7874386, “Protein-observed 19F NMR of LecA from Pseudomonas aeruginosa” (Glycobiology, 2020)
